Series [1] in a line: DVS (dynamic vapor sorption) test. It is filed as physicochemical. On the procedure: DVS was measured via a SMS (Surface Measurement Systems) DVS Intrinsic. The relative humidity at 25° C. were calibrated against deliquescence point of LiCl, Mg(NO3)2 and KCl.
A short description of series [2]: pKa via potentiometric titration. The format is physicochemical. An excerpt:
Where this threshold is not met, non-ionic interactions (e.g., hydrogen bonds) can still occur between neutral acid and the base compounds to form, e.g., a co-crystal.

The next series relates to Btk. The following applies: reported in the '853 application; read-out: IC50 in a pBTK assay; cited from earlier work.

Regarding `Cc1cc(-c2ccnc(Nc3cnn(C)c3)n2)ccc1CNC(=O)N1CC(OC(C)C)C1` [Compound 2 Type II], the “form change after the DVS test (XRPD)” value in series [1] is given as “no form change”. In addition, the “water uptake (DVS)” value in series [1] (25° C./80% RH) turned out to be 0.3%. Also, in series [1] (from DVS, 25° C./80% RH), the hygroscopicity result is listed as “slightly hygroscopic”.
For the compound `Cc1cc(-c2ccnc(Nc3cnn(C)c3)n2)ccc1CNC(=O)N1CC(OC(C)C)C1` [Compound 1, 3-isopropoxy-N-(2-methyl-4-(2-((1-methyl-1H-pyrazol-4-yl)amino)pyrimidin-4-yl)benzyl)azetidine-1-carboxamide], the pKa in series [2] is 3.31. The half-maximal inhibitory concentration (IC50) in the series with Btk was […].

These data come from US20180179189A1, “ADIPATE FORMS AND COMPOSITIONS OF BIARYL INHIBITORS OF BRUTON'S TYROSINE KINASE” (BIOGEN MA INC., priority 2015, published 2018).
